The text below walks through data of paper PMC12935787, “Clinical pharmacokinetics and pharmacometabolomics of Andrographis paniculata capsules: Bridging drug disposition and metabolic response to precision medicine” (Naunyn-Schmiedeberg's Archives of Pharmacology, 2025).

The subject of data set [1] is Human metabolic pathways (KEGG). The data set is described as follows: Urine pharmacometabolomics, peaks-to-pathway mummichog analysis. In kind it is in vivo, human (healthy volunteers). Conditions: urinary PMx analysis, 1000 mg and 2000 mg AP (either dose). How it is done:
The protocol was published (Tee et al. [2022]).
Plasma samples (blank and subject) were thawed from −80 °C and processed using cold protein precipitation (200 μL plasma + 600 μL acetone:acetonitrile:methanol [1:1:1]). After −20 °C incubation (1 h) and centrifugation (10,000 rpm, 4 °C, 10 min), supernatants were filtered (0.22 μm) into LC–MS vials. System suitability test using vendor-provided internal standards ensured instrument performance parameters met acceptance criteria prior to metabolomics analysis. Samples (plasma and urine) were prepared in four batches. Each batch was analyzed separately in positive and negative ionization modes using a global metabolomics approach, resulting in eight analytical batches. Each analytical batch commenced with blank water, blank water spiked with internal standard (IS), and blank plasma or urine (with and without IS), all meeting the acceptance criteria in Figure S6 and Figure S7. Five pooled quality control (PQC) samples were analyzed at batch start, with additional PQCs interspersed after every fourth subject sample to monitor LC–MS system stability. Chromatogram overlays of all PQCs for every batch were assessed for consistency and instrument stability. Overlays of PQCs with subject samples were also evaluated in Figure S8. All eight batches met predefined acceptance criteria prior to data processing.
Dose-dependent PMx analyses compared pre-dose (T0) with post-dose time points (T2.5, T3, T3.5) for plasma and pre-dose (U0) with post-dose intervals (0–4 h [U1], 4–8 h [U2], 8–12 h [U3]) for urine, using positive and negative ion mode acquisition.
PCA results for pre- and post-dose urine samples were obtained by performing similar statistical and multivariate analyses of metabolite data (Figure S5). Batch effects were not observed in the normalized datasets for both positive and negative modes at either dose. All urine samples were successfully analyzed, except for samples U13 and U14 for the 1000 mg AP dose in positive mode, which were not captured due to a power supply issue with the LC–MS during the analysis.

On the set-up of data set [2]: method as in Panossian et al. [2000]. To be noted: single dose of AP equivalent to 20 mg andrographolide; ref Panossian et al. [2000]; cited from earlier work.

`C=C1CC[C@@H]2[C@](C)(CO)[C@H](O)CC[C@@]2(C)[C@@H]1CCC1=CCOC1=O` [14-deoxyandrographolide]: the “free compound detected in urine” value in data set [1] is “detected no free”. As to `C=C1CC[C@@H]2[C@](C)(CO)[C@H](O)CC[C@@]2(C)[C@@H]1C/C=C1/C(=O)OC[C@H]1O` [andrographolide], the “Tmax, previously reported” value in data set [2] was 1.5 to 2 h. In data set [1], the “free compound detected in urine” value is reported as “detected no free”. `C=C1CC[C@@H]2[C@](C)(CO[C@@H]3O[C@H](CO)[C@@H](O)[C@H](O)[C@H]3O)CCC[C@@]2(C)[C@@H]1CCC1=CCOC1=O` [neoandrographolide]: the “free compound detected in urine” value in data set [1] is recorded as “detected no free”.
